Laboratory results: PMC4138078, “Chemically Modified Peptide Scaffolds Target the CFTR-Associated Ligand PDZ Domain” (PLoS ONE, 2014)
Where a name gives a salt, the structure may show the parent alone. Peptide text beside a SMILES is read from it. * marks the point of attachment. Benzoyl(4-Br) = O=C(c1ccc(Br)cc1)*; Benzoyl(4-F) = O=C(c1ccc(F)cc1)*; Tfa = O=C(C(F)(F)F)*

What was measured:
Assay type in all cases: binding
CAL PDZ domain (CALP) [1] = target: T1, CAL PDZ domain (CALP) (Homo sapiens, UniProt Q9HD26); test: Surface plasmon resonance (SPR), equilibrium analysis; details: SPR value relative to FP value
T1 construct: made in house
Method: SPR experiments were performed on a Biacore X100 Plus (GE Healthcare Life Sciences), with CALP covalently immobilized on a CM5 sensor chip. […] Sensorgrams were analyzed using the Biacore evaluation software. Experiments were performed in duplicate or triplicate (n≥2). A detailed description is provided in ref. [21].

CAL PDZ domain (CALP) [2] = target: T1, CAL PDZ domain (CALP); test: Isothermal titration calorimetry (ITC); details: ITC value relative to FP value
Method: ITC experiments were performed and analyzed in a manner similar to that described previously, [20]. Titrations were performed with a Nano ITC 2G (TA Instruments). In brief, for a typical titration, 100–320 µM CALP was loaded into the 943 µL sample cell, and 2–3 mM peptide placed in a 250 µL injector syringe. For [drawing 8] , titrations were performed with polyhistidine-tagged CALP. Peptide concentrations were adjusted based on the amount of protein, so the final ratio of peptide to protein ranged between 3∶1–4∶1. Each titration included an initial 1 or 2 µL injection followed by 5 or 10 µL injections performed at 180 s intervals, for a total of 25–50 injections. The stirring speed was 250 rpm, and experimental temperature was 25°C. Thermograms were analyzed using NanoAnalyze software (TA Instruments). Details are described in ref. [21].

CAL PDZ domain (CALP) [3] = target: T1, CAL PDZ domain (CALP); test: Fluorescence polarization (FP) competition/displacement assay; details: for binding affinity stronger than iCAL36: FP displacement
Method: FP competition experiments were performed as previously described, [17].
For illustrative purposes, a logistic curve-fit is shown, but K I values and fractional reporter occupancy values were determined by least-squares fitting of the complete binding equation.

Row | Molecule | fold-deviation of K D from SPR from the value obtained by FP (CAL PDZ domain (CALP) [1]) | fold-deviation of K D from ITC from the value obtained by FP (CAL PDZ domain (CALP) [2]) | change in binding affinity compared to iCAL36 (CAL PDZ domain (CALP) [3]; head-to-head FP displacement assays) | binding affinity stronger than iCAL36 (CAL PDZ domain (CALP) [3])
1 | CC[C@H](C)[C@H](NC(=O)[C@@H](NC(=O)[C@H](CO)NC(=O)[C@@H](NC(=O)[C@@H]1CCCN1C(=O)[C@H](Cc1c[nH]c2ccccc12)NC(=O)[C@H](CCCNC(=N)N)NC(=O)[C@H](CO)NC(=O)[C@H](CC(N)=O)NC(=O)[C@H](C)NC(C)=O)[C@@H](C)O)[C@@H](C)CC)C(=O)O [Ac-iCAL36] | – | – | no significant change | –
2 | CC[C@H](C)[C@H](NC(=O)[C@H](CCCCNC(=O)c1ccc(Br)cc1)NC(=O)[C@H](CO)NC(=O)[C@@H](NC(=O)[C@@H]1CCCN1C(=O)[C@H](Cc1c[nH]c2ccccc12)NC(=O)[C@H](CCCNC(=N)N)NC(=O)[C@H](CO)NC(=O)[C@H](CC(N)=O)NC(=O)[C@H](C)N)[C@@H](C)O)C(=O)O [Peptide C00005] (H-ANSRWPTSK(Benzoyl(4-Br))I-OH) | (1.8) fold | (1.9) fold | – | ~2 fold
3 | H-ANSRWPTSK(Ac)I-OH [Peptide C00001] | (2.7) fold | (1.8) fold | – | –

More lines, main results first:

Row | fold-deviation of K D from SPR from the value obtained by FP (CAL PDZ domain (CALP) [1]) | fold-deviation of K D from ITC from the value obtained by FP (CAL PDZ domain (CALP) [2]) | change in binding affinity compared to iCAL36 (CAL PDZ domain (CALP) [3]; head-to-head FP displacement assays) | Molecule | binding affinity stronger than iCAL36 (CAL PDZ domain (CALP) [3])
4 | (2.0) fold | (1.5) fold | – | CC[C@H](C)[C@H](NC(=O)[C@@H](NC(=O)[C@H](CO)NC(=O)[C@@H](NC(=O)[C@H](CCCCNC(C)=O)NC(=O)[C@H](Cc1c[nH]c2ccccc12)NC(=O)[C@H](CCCNC(=N)N)NC(=O)[C@H](CO)NC(=O)[C@H](CC(N)=O)NC(=O)[C@H](C)N)[C@@H](C)O)[C@@H](C)CC)C(=O)O [Peptide C00003] | –
5 | (0.5) fold | – | – | CC[C@H](C)[C@H](NC(=O)[C@@H](NC(=O)[C@H](CO)NC(=O)[C@@H](NC(=O)[C@@H]1CCCN1C(=O)[C@H](CCCCNC(C)=O)NC(=O)[C@H](CCCNC(=N)N)NC(=O)[C@H](CO)NC(=O)[C@H](CC(N)=O)NC(=O)[C@H](C)N)[C@@H](C)O)[C@@H](C)CC)C(=O)O [Peptide C00004] | –
6 | (1.6) fold | (2.4) fold | – | CC[C@H](C)[C@H](NC(=O)[C@H](CCCCNC(=O)C(F)(F)F)NC(=O)[C@H](CO)NC(=O)[C@@H](NC(=O)[C@@H]1CCCN1C(=O)[C@H](Cc1c[nH]c2ccccc12)NC(=O)[C@H](CCCNC(=N)N)NC(=O)[C@H](CO)NC(=O)[C@H](CC(N)=O)NC(=O)[C@H](C)N)[C@@H](C)O)C(=O)O [Peptide C00007] (H-ANSRWPTSK(Tfa)I-OH) | –
7 | (2.4) fold | (1.1) fold | – | CC[C@H](C)[C@H](NC(=O)[C@H](CCCCNC(=O)c1ccc(F)cc1)NC(=O)[C@H](CO)NC(=O)[C@@H](NC(=O)[C@@H]1CCCN1C(=O)[C@H](Cc1c[nH]c2ccccc12)NC(=O)[C@H](CCCNC(=N)N)NC(=O)[C@H](CO)NC(=O)[C@H](CC(N)=O)NC(=O)[C@H](C)N)[C@@H](C)O)C(=O)O [Peptide C00006] (H-ANSRWPTSK(Benzoyl(4-F))I-OH) | ~2 fold
8 | (0.7) fold | (0.5) fold | – | H-ANSRWPK(Ac)SII-OH [Peptide C00002] | –
